Assay results as given in patent US20250059187A1, “COVALENTLY BINDING INHIBITORS OF G12S, G12D AND/OR G12E MUTANTS OF K-RAS GTPASE” (The Regents of the University of California, priority 2021, published 2025).

How the values were obtained:
[1] = test system: A549 cells (homozygous KRAS p.G12S mutation); assay: Immunoblot and Raf-RBD pulldown in A549 cells; assay type: cell-based; conditions: 2 h
Description: (§1) Cells were passed for at least two generations after cryorecovery before they were used for assays. All cell lines were tested mycoplasma negative using MycoAlert™ Mycoplasma Detection Kit (Lonza). When indicated, cells were treated with drugs at 40-60% confluency at a final DMSO concentration of 1%. At the end of treatment period, cells were placed on ice. Unless otherwise indicated, adherent cells were washed once with ice-cold PBS (1 mL), scraped with a spatula, and pelleted by centrifugation (500×g, 5 min). Suspension cells were pelleted by centrifugation (500×g, 5 min), washed with 1 mL ice-cold PBS, and pelleted again. Cells were lysed in RIPA buffer supplemented with protease and phosphatase inhibitors (cOmplete and phosSTOP, Roche) on ice for 10 min. For RBD pulldown experiments, cells were lysed in Co-IP Lysis Buffer in lieu of RIPA buffer. Lysates were clarified by high-speed centrifugation (19,000×g, 10 min). Concentrations of lysates were determined with protein BCA assay (Thermo Fisher) and adjusted to 2 mg/mL with additional RIPA buffer (or Co-IP Lysis Buffer). Samples were mixed with 5×SDS Loading Dye and heated at 95° C. for 5 min.
Ras·GTP pulldown was performed with GST-RBD agarose beads (Cytoskeleton, 10 μL, 30 μg loaded GST-RBD). 50 μL lysate (2 mg/mL) was mixed with 10 μL beads, and the suspension was incubated at 4° C. for 1 h with constant end-to-end rotation. The beads were settled by centrifugation (500×g, 5 min) and the supernatant was carefully removed. The beads were washed with 2×500 μL ice-cold Co-IP wash buffer. Bound protein was eluted with 10 μL 2×SDS Loading Buffer.
Membranes were blocked in 5% BSA-TBST for 1 h at 23° C. […] After washing the membrane three times with TBST (5 min each wash), secondary antibodies (goat anti-rabbit IgG-IRDye 800 and goat anti-mouse IgG-IRDye 680, Li-COR) were added as solutions in 5% skim milk-TBST at the dilutions recommended by the manufacturer. Secondary antibody binding was allowed to proceed for 1 h at 23° C. The membrane was washed three times with TBST (5 min each wash) and imaged on a Li-COR Odyssey fluorescence imager.

[2] = test system: cell lines with confirmed KRAS p.G12S mutations; assay: Immunoblot in four cell lines with confirmed KRAS p.G12S mutations; assay type: cell-based; conditions: 10 μM, 2 h
Description: as §1, with “Samples were mixed with 5×SDS Loading Dye and heated at 95° C. for 5 min.” left out
(§2) Unless otherwise noted, SDS-PAGE was run with Novex 16% Bis-Tris gel (Invitrogen) in MES running buffer (Invitrogen) at 200 V for 60 min following the manufacturer's instructions. […] The membrane was washed three times with TBST (5 min each wash) and imaged on a Li-COR Odyssey fluorescence imager.

[3] = test system: A375 cells (wild-type KRAS); assay: Immunoblot in A375 cells; assay type: cell-based; conditions: 10 μM, 2 h
Description: as §1, with “Samples were mixed with 5×SDS Loading Dye and heated at 95° C. for 5 min.” left out
as §2

[4] = test system: SW1990 cells (homozygous KRAS p.G12D); assay: Immunoblot in SW1990 cells (G12S ligand); assay type: cell-based; conditions: 10 μM, 2 h
Description: as §1, with “Samples were mixed with 5×SDS Loading Dye and heated at 95° C. for 5 min.” left out
as §2

[5] = test system: Ba/F3:K-Ras(G12S) cells (without IL-3); assay: Cell viability assay (CellTiter-Glo), Ba/F3:K-Ras(G12S) cells; assay type: cell-based, murine
Description: Cells were seeded into 96-well white flat bottom plates (1,000 cells/well) (Corning) and incubated overnight. […] Cell viability was assessed using a commercial CellTiter-Glo (CTG) luminescence-based assay (Promega). Briefly, the 96-well plates were equilibrated to room temperature before the addition of diluted CTG reagent […] (1:4 CTG reagent:PBS). Plates were placed on an orbital shaker for 30 min before recording luminescence using a Spark 20M (Tecan) plate reader.

[6] = test system: Ba/F3:K-Ras(G12S) cells; assay: Phospho-ERK assay in Ba/F3:K-Ras(G12S) cells; assay type: cell-based, murine; conditions: 1 h treatment
Description: Ba/F3 parental cells were pelleted and resuspend in IL-3 supplemented growth medium (RPMI 1640, 10% heat-inactivated FBS, 10 ng/mL mouse IL-3 medium) to 1×10^7/mL. Ba/F3 K-Ras(G12S) transductant cells were pelleted and resuspended in IL-3 free growth medium (RPMI 1640, 10% heat-inactivated FBS) to 1×10^7/mL. 25 μL cells were added to each well of a 96-well plate (2.5×10^5 cells/well), followed by 5 μL 6× compound solutions (6% DMSO). The mixture was incubated at 37° C. for 1 h. Cell lysis and subsequent high-throughput phospho-ERK assay was performed using Cisbio Advanced phospho-ERK (Thr202/Tyr204) cellular kit (PerkinElmer 64AERPEG) following the manufacturer's instructions.

[7] = biological target: T1, wild type K-Ras (Homo sapiens, UniProt P01116); assay: Covalent modification of test protein after incubation with compound; assay type: binding; conditions: 24-h incubation with 100 μM compound at 23° C. at pH 7.5
T1 construct: human K-Ras (wildtype, aa 1-169); 6xHis tag + TEV cleavage site (N, cleaved yes); made in house; host or cells: E. coli BL21(DE3)

[8] = biological target: T2, K-Ras G12D (Homo sapiens, UniProt P01116, G12D); assay: as above; assay type: binding; conditions: 24-h incubation with 100 μM compound at 23° C. at pH 7.5
T2 construct: human K-Ras (G12D, aa 1-169); 6xHis tag + TEV cleavage site (N, cleaved yes); made in house; host or cells: E. coli BL21(DE3)

[9] = biological target: T3, K-Ras G12E (Homo sapiens, UniProt P01116, G12E); assay: as above; assay type: binding; conditions: 24-h incubation with 100 μM compound at 23° C. at pH 7.5
T3 construct: human K-Ras (G12E, aa 1-169); 6xHis tag + TEV cleavage site (N, cleaved yes); made in house; host or cells: E. coli BL21(DE3)

O=C1O[C@H]2CN(c3nc(OCC45CCCN4CCC5)nc4c(F)c(-c5cccc6cccc(Cl)c56)ncc34)CC[C@@H]12 [5′]
effects on phospho-Akt, phospho-Erk and Ras·GTP levels ([1]; 10 μM): nearly complete loss of Ras·GTP and concomitant inhibition of phospho-Erk | IC50 ([1]; Homo sapiens, A549 cells, read-out: apparent IC50, inhibition of Ras signaling): ~3000 nM | phospho-ERK level and K-Ras gel mobility [2]: reduction of phospho-ERK level and gel mobility shift of the K-Ras protein | signaling in A375 cells [3]: did not perturb the signaling | signaling in SW1990 cells [4]: did not perturb the signaling | selectivity, Ba/F3:K-Ras(G12S) over parental Ba/F3 cells [5]: five-fold | IC50 ([5]; Mus musculus, BaF3, no IL-3, 72 h, read-out: IC50, growth of K-Ras(G12S)-transduced Ba/F3 cells): 2400 nM | phospho-ERK levels [6]: dose-dependent reduction of phospho-ERK levels | % covalent modification of wild type K-Ras [7]: 0% | % covalent modification of K-Ras G12D [8]: 0% | % covalent modification of K-Ras G12E [9]: 0%
